According to patent US11802120B2, “Fused cyclic urea derivatives as CRHR2 antagonist” (RaQualia Pharma Inc., priority 2018, dated 2023):

These compounds were tested against T1, human CRHR2-alpha (Homo sapiens, UniProt Q13324) (assay: cAMP functional assay for human CRHR2 (LANCE Ultra cAMP, TR-FRET)). Conditions: CHO-K1 cells expressing human CRHR2-alpha, agonist human urocortin2 at EC80, cAMP; read-out: IC50 against CRHR2.
T1 sequence (Q13324 1-411): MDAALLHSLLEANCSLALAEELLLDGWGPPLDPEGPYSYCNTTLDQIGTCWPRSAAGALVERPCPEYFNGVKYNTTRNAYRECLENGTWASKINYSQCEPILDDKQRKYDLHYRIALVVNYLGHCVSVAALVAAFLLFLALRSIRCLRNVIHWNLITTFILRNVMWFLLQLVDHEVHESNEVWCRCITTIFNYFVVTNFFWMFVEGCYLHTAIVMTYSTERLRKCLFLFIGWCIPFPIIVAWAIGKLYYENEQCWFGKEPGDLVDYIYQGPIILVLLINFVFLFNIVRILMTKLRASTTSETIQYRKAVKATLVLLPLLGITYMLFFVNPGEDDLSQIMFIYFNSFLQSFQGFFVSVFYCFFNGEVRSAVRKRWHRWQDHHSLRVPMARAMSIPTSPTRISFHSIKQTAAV
Assay type: cell-based
Method in brief: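 First, starved and frozen CHO-K1 cells expressing the receptor are thawed into IBMX-containing HBSS buffer (pH 7.4). Next, compounds are added for 30 min at 25° C. Then agonist at EC80 (urocortin2 or CRF, per receptor) is added for another 30 min, followed by cAMP detection reagents.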
Work on `COc1ccc(-n2c(=O)n(C[C@H]3CC[C@H](NC(=O)c4cc(Cl)cnc4C)CC3)c3cccnc32)cc1` [Example 190, 5-chloro-N-((1r,4r)-4-((3-(4-methoxyphenyl)-2-oxo-2,3-dihydro-1H-imidazo [4,5-b]pyridin-1-yl)methyl)cyclohexyl)-2-methylnico-tinamide] yielded an IC50 of less than 300 nM. Compound `O=C(N[C@H]1CC[C@H](Cn2c(=O)n(-c3ccc(OCCO)nc3)c3ccccc32)CC1)c1cc(Cl)cnc1C(F)F` [Example 365, 5-chloro-2-(difluoromethyl)-N-((1r,4r)-4-((3-(6-(2-hydroxyethoxy)pyridin-3-yl)-2-oxo-2,3-dihydro-1H-benzo[d]imidazol-1-yl)methyl)cyclohexyl)nicotinamide] has an IC50 of less than 300 nM. Work on `Cc1ncc(Cl)cc1C(=O)N[C@H]1CC[C@H](Cn2c(=O)n(CC(=O)c3ccc(F)cc3F)c3ccccc32)CC1` [Example 12, 5-chloro-N-((1r,4r)-4-((3-(2-(2,4-difluorophenyl)-2-oxoethyl)-2-oxo-2,3-dihydro-1H-benzo[d]imidazol-1-yl)methyl)cyclohexyl)-2-methylnicotinamide] yielded an IC50 of less than 300 nM. Work on `Cc1ncc(Cl)cc1C(=O)N[C@H]1CC[C@H](Cn2c(=O)n(-c3ccnc4ccccc34)c3ccccc32)CC1` [Example 370, 5-chloro-2-methyl-N-((1r,4r)-4-((2-oxo-3-(quinolin-4-yl)-2,3-dihydro-1H-benzo[d]imi-dazol-1-yl)methyl)cyclohexyl) nicotinamide] yielded an IC50 of less than 300 nM. With `CCn1nc2ccccc2c1C(=O)N[C@H]1CC[C@H](Cn2c(=O)n(-c3ccc(OC)nc3)c3ccccc32)CC1` [Example 39, 2-ethyl-N-((1r,4r)-4-((3-(6-methoxypyridin-3-yl)-2-oxo-2,3-dihydro-1H-benzo[d]imidazol-1-yl)methyl)cyclohexyl)-2H-indazole-3-carboxamide] the IC50 was less than 300 nM. Work on `Cc1ncc(Cl)cc1C(=O)N[C@H]1CC[C@H](Cn2c(=O)n(-c3ccc(-c4cnn(C)c4)cc3)c3ccccc32)CC1` [Example 579, 5-chloro-2-methyl-N-((1r,4r)-4-((3-(4-(1-methyl-1H-pyrazol-4-yl)phenyl)-2-oxo-2,3-dihydro-1H-benzo[d]imidazol-1-yl)methyl)cyclo-hexyl)nicotinamide] yielded an IC50 of less than 300 nM. `Cc1ccc(-n2c(=O)n(C[C@H]3CC[C@H](NC(=O)c4cc(Cl)cnc4C(F)F)CC3)c3ccccc32)cn1` [Example 324, 5-chloro-2-(difluoromethyl)-N-((1r,4r)-4-((3-(6-methyl-pyridin-3-yl)-2-oxo-2,3-dihydro-1H-benzo[d]imidazol-1-yl)methyl)cyclohexyl)nico-tinamide] gave an IC50 of less than 300 nM. In the case of `COc1ccc(-n2c(=O)n(C[C@H]3CC[C@H](NC(=O)c4cc(Cl)cnc4C(F)F)CC3)c3ncccc32)cc1F` [Example 722, 5-chloro-2-(difluoromethyl)-N-((1r,4r)-4-((1-(3-fluoro-4-methoxyphenyl)-2-oxo-1H-imidazo[4,5-b]pyridin-3(2H)-yl)methyl)cyclohexyl) nicotinamide], the IC50 is reported as less than 300 nM. Compound `Cc1ncc(Cl)cc1C(=O)N[C@H]1CC[C@H](Cn2c(=O)n(-c3ccc(C=O)cc3C#N)c3ccccc32)CC1` [Example 306, 5-chloro-N-((1r,4r)-4-((3-(2-cyano-4-formylphenyl)-2-oxo-2,3-dihydro-1H-benzo[d]imidazol-1-yl)methyl)cyclo-hexyl)-2-methylnicotinamide] has an IC50 of less than 300 nM. With `CNc1cc(-n2c(=O)n(C[C@H]3CC[C@H](NC(=O)c4cc(Cl)cnc4C)CC3)c3ccccc32)ccn1` [Example 573, 5-chloro-2-methyl-N-((1r,4r)-4-((3-(2-(methylamino)pyridin-4-yl)-2-oxo-2,3-dihydro-1H-benzo[d]imidazol-1-yl)methyl)cyclohexyl)nicotinamide] the IC50 was less than 300 nM. `Cc1ncc(Cl)cc1C(=O)N[C@H]1CC[C@H](Cn2c(=O)n(-c3ccc4c(CO)noc4c3)c3ccccc32)CC1` [Example 261, 5-chloro-N-((1r,4r)-4-((3-(3-(hydroxymethyl)benzo[d]isoxazol-6-yl)-2-oxo-2,3-dihydro-1H-benzo[d]imidazol-1-yl)methyl)cyclohexyl)-2-methylnicotinamide] showed an IC50 of less than 300 nM. `Cc1ncc(Cl)cc1C(=O)N[C@H]1CC[C@H](Cn2c(=O)n(-c3ccc(F)cc3F)c3ccccc32)CC1` [Example 46, 5-chloro-N-((1r,4r)-4-((3-(2,4-difluorophenyl)-2-oxo-2,3-dihydro-1H-benzo[d]imidazol-1-yl)methyl)cyclohexyl)-2-methylnicotinamide] showed an IC50 of less than 300 nM. `Cc1ncc(Cl)cc1C(=O)N[C@H]1CC[C@H](Cn2c(=O)n(-c3cnc(OCCO)c(F)c3)c3ccccc32)CC1` [Example 553, 5-chloro-N-((1r,4r)-4-((3-(5-fluoro-6-(2-hydroxyethoxy)pyridin-3-yl)-2-oxo-2,3-dihydro-1H-benzo[d]imidazol-1-yl)methyl)cyclohexyl)-2-methylnicotinamide] was tested, and the IC50 was less than 300 nM. For `O=C(N[C@H]1CC[C@H](Cn2c(=O)n(-c3ccc4ncccc4c3)c3cccnc32)CC1)c1cc(Cl)cnc1C(F)(F)F` [Example 360, 5-chloro-N-((1r,4r)-4-((2-oxo-1-(quinolin-6-yl)-1H-imidazo [4,5-b]pyridin-3(2H)-yl)methyl)cyclohexyl)-2-(trifluoromethyl) nicotinamide], the IC50 was less than 300 nM. With `CCNC(=O)c1ccc(-n2c(=O)n(C[C@H]3CC[C@H](NC(=O)c4cc(Cl)cnc4C)CC3)c3ccccc32)cn1` [Example 182, 5-(3-(((1r,4r)-4-(5-chloro-2-methylnicotinamido)cyclo-hexyl)methyl)-2-oxo-2,3-dihydro-1H-benzo[d]imidazol-1-yl)-N-ethylpicolinamide] the IC50 was less than 300 nM. With `O=C(N[C@H]1CC[C@H](Cn2c(=O)n(-c3ccc4ncsc4c3)c3ncccc32)CC1)c1cc(Cl)cnc1C(F)F` [Example 387, N-((1r,4r)-4-((3-(benzo[d]thiazol-6-yl)-2-oxo-2,3-dihydro-1H-imidazo[4,5-b]pyridin-1-yl)methyl)cyclo-hexyl)-5-chloro-2-(difluoro-methyl)nicotinamide] the IC50 was less than 300 nM. In the case of `Cc1ncc(Cl)cc1C(=O)N[C@H]1CC[C@H](Cn2c(=O)n(-c3ccc4c(Cl)nn(C)c4c3)c3ccccc32)CC1` [Example 208, 5-chloro-N-((1r,4r)-4-((3-(3-chloro-1-methyl-1H-indazol-6-yl)-2-oxo-2,3-dihydro-1H-benzo[d]imidazol-1-yl)methyl)cyclohexyl)-2-methylnico-tinamide], the IC50 is reported as less than 300 nM. Work on `O=C(N[C@H]1CC[C@H](Cn2c(=O)n(-c3ccc(-n4nccn4)nc3)c3ccccc32)CC1)c1cc(Cl)cnc1C(F)F` [Example 685, N-((1r,4r)-4-((3-(6-(2H-1,2,3-triazol-2-yl)pyridin-3-yl)-2-oxo-2,3-dihydro-1H-benzo[d]imidazol-1-yl)methyl)cyclohexyl)-5-chloro-2-(difluoromethyl) nicotinamide] yielded an IC50 of less than 300 nM. Work on `COc1ccc(-n2c(=O)n(C[C@H]3CC[C@H](NC(=O)c4cc(Cl)cnc4Cl)CC3)c3ccccc32)cn1` [Example 237, 2,5-dichloro-N-((1r,4r)-4-((3-(6-methoxypyridin-3-yl)-2-oxo-2,3-dihydro-1H-benzo[d]imidazol-1-yl)methyl)cyclo-hexyl)nicotinamide] yielded an IC50 of less than 300 nM. `O=C(N[C@H]1CC[C@H](Cn2c(=O)n(-c3cc(F)ccc3Cl)c3ncccc32)CC1)c1cc(Cl)cnc1C(F)F` [Example 454, 5-chloro-N-((1r,4r)-4-((3-(2-chloro-5-fluorophenyl)-2-oxo-2,3-dihydro-1H-imidazo[4,5-b]pyridin-1-yl)methyl)cyclo-hexyl)-2-(difluoromethyl) nicotinamide] showed an IC50 of less than 300 nM. With `Cc1ncc(Cl)cc1C(=O)N[C@H]1CC[C@H](Cn2c(=O)n(-c3ccc4cccnc4c3)c3ccccc32)CC1` [Example 395, 5-chloro-2-methyl-N-((1r,4r)-4-((2-oxo-3-(quinolin-7-yl)-2,3-dihydro-1H-benzo[d]imidazol-1-yl)methyl)cyclo-hexyl)nicotinamide] the IC50 was less than 300 nM. Work on `Cc1ncc(Cl)cc1C(=O)N[C@H]1CC[C@H](Cn2c(=O)n(-c3ccc4[nH]nc(C)c4c3)c3ccccc32)CC1` [Example 170, 5-chloro-2-methyl-N-((1r,4r)-4-((3-(3-methyl-1H-indazol-5-yl)-2-oxo-2,3-dihydro-1H-benzo[d]imidazol-1-yl)methyl)cyclohexyl)nicotinamide] yielded an IC50 of less than 300 nM. Compound `Cc1ncc(Cl)cc1C(=O)N[C@H]1CC[C@H](Cn2c(=O)n(-c3cccc4ncncc34)c3ccccc32)CC1` [Example 187, 5-chloro-2-methyl-N-((1r,4r)-4-((2-oxo-3-(quinazolin-5-yl)-2,3-dihydro-1H-benzo[d]imidazol-1-yl)methyl)cyclo-hexyl)nicotinamide] has an IC50 of less than 300 nM. `O=C(N[C@H]1CC[C@H](Cn2c(=O)n(-c3ccccc3F)c3ncccc32)CC1)c1cc(Cl)cnc1C(F)F` [Example 449, 5-chloro-2-(difluoromethyl)-N-((1r,4r)-4-((3-(2-fluoro-phenyl)-2-oxo-2,3-dihydro-1H-imidazo[4,5-b]pyridin-1-yl)methyl)cyclohexyl) nicotinamide] showed an IC50 of less than 300 nM. Work on `CNc1cc(-n2c(=O)n(C[C@H]3CC[C@H](NC(=O)c4cc(Cl)cnc4C(F)F)CC3)c3ccccc32)ccn1` [Example 661, 5-chloro-2-(difluoromethyl)-N-((1r,4r)-4-((3-(2-(methylamino)pyridin-4-yl)-2-oxo-2,3-dihydro-1H-benzo[d]imidazol-1-yl)methyl)cyclohexyl)nicotinamide] yielded an IC50 of less than 300 nM.
